Assay results: patent US9029553B2, “2-anilino nicotinyl linked 2-amino benzothiazole conjugates and process for the preparation thereof” (Council of Scientific & Industrial Research, priority 2011, dated 2015)

Assays:
[1] = system: caspase-3, caspase-8, caspase-9 activity in HL-60 Cells; test: Caspases induction; format: cell-based, human; conditions: 1 μM, 24 h
Text: So activation of caspases by compound 8 indicate that it induce apoptosis through both the intrinsic as well as extrinsic apoptotic pathway in HL-60 cells.

MDA-MB-435 = test: NCI SRB GI50 screen; format: cell-based; conditions: Homo sapiens, Melanoma, 48 hrs exposure, read-out: Growth Inhibition GI50 MDA-MB-435
Experimental: (§1) 2-Anilino nicotinyl linked 2-amino benzothiazole conjugates of formula 9-12 were tested against fifty nine human cancer cell lines derived from nine cancer types (leukemia, non-small cell lung cancer, colon cancer, CNS cancer, melanoma, ovarian cancer, renal cancer, prostate cancer and breast cancer) as per NCI protocol. For each compound, dose response curves for individual cell lines were measured at a minimum of five concentrations at 10 fold dilutions. A protocol of 48 hrs continuous drug exposure was used, and a sulforhodamine B (SRB) protein assay was used to estimate cell viability or growth.

BT-549 = test: NCI SRB GI50 screen; format: cell-based; conditions: Homo sapiens, Breast, 48 hrs exposure, read-out: Growth Inhibition GI50 BT-549
Experimental: as §1

HCT-15 = test: NCI SRB GI50 screen; format: cell-based; conditions: Homo sapiens, Colon, 48 hrs exposure, read-out: Growth Inhibition GI50 HCT-15
Experimental: as §1

HOP-62 = test: NCI SRB GI50 screen; format: cell-based; conditions: Homo sapiens, Non-small lung, 48 hrs exposure, read-out: Growth Inhibition GI50 HOP-62
Experimental: as §1

SK-MEL-5 = test: NCI SRB GI50 screen; format: cell-based; conditions: Homo sapiens, Melanoma, 48 hrs exposure, read-out: Growth Inhibition GI50 SK-MEL-5
Experimental: as §1

SF-295 = test: NCI SRB GI50 screen; format: cell-based; conditions: Homo sapiens, CNS, 48 hrs exposure, read-out: Growth Inhibition GI50 SF-295
Experimental: as §1

COLO 205 = test: NCI SRB GI50 screen; format: cell-based; conditions: Homo sapiens, Colon, 48 hrs exposure, read-out: Growth Inhibition GI50 COLO 205
Experimental: as §1

786-0 = test: NCI SRB GI50 screen; format: cell-based; conditions: Homo sapiens, Renal, 48 hrs exposure, read-out: Growth Inhibition GI50 786-0
Experimental: as §1

HCC-2998 = test: NCI SRB GI50 screen; format: cell-based; conditions: Homo sapiens, Colon, 48 hrs exposure, read-out: Growth Inhibition GI50 HCC-2998
Experimental: as §1

SK-MEL-28 = test: NCI SRB GI50 screen; format: cell-based; conditions: Homo sapiens, Melanoma, 48 hrs exposure, read-out: Growth Inhibition GI50 SK-MEL-28
Experimental: as §1

SK-MEL-2 = test: NCI SRB GI50 screen; format: cell-based; conditions: Homo sapiens, Melanoma, 48 hrs exposure, read-out: Growth Inhibition GI50 SK-MEL-2
Experimental: as §1

Sw-620 = test: NCI SRB GI50 screen; format: cell-based; conditions: Homo sapiens, Colon, 48 hrs exposure, read-out: Growth Inhibition GI50 SW-620
Experimental: as §1

NCI-H460 = test: NCI SRB GI50 screen; format: cell-based; conditions: Homo sapiens, Non-small lung, 48 hrs exposure, read-out: Growth Inhibition GI50 NCI-H460
Experimental: as §1

UACC-62 = test: NCI SRB GI50 screen; format: cell-based; conditions: Homo sapiens, Melanoma, 48 hrs exposure, read-out: Growth Inhibition GI50 UACC-62
Experimental: as §1

OVCAR-8 = test: NCI SRB GI50 screen; format: cell-based; conditions: Homo sapiens, Ovarian, 48 hrs exposure, read-out: Growth Inhibition GI50 OVCAR-8
Experimental: as §1

UACC-257 = test: NCI SRB GI50 screen; format: cell-based; conditions: Homo sapiens, Melanoma, 48 hrs exposure, read-out: Growth Inhibition GI50 UACC-257
Experimental: as §1

CCRF-CEM = test: NCI SRB GI50 screen; format: cell-based; conditions: Homo sapiens, Leukemia, 48 hrs exposure, read-out: Growth Inhibition GI50 CCRF-CEM
Experimental: as §1

SF-539 = test: NCI SRB GI50 screen; format: cell-based; conditions: Homo sapiens, CNS, 48 hrs exposure, read-out: Growth Inhibition GI50 SF-539
Experimental: as §1

DU-145 = test: NCI SRB GI50 screen; format: cell-based; conditions: Homo sapiens, Prostate, 48 hrs exposure, read-out: Growth Inhibition GI50 DU-145
Experimental: as §1

MDA-MB-231/ATCC = test: NCI SRB GI50 screen; format: cell-based; conditions: Homo sapiens, Breast, 48 hrs exposure, read-out: Growth Inhibition GI50 MDA-MB-231/ATCC
Experimental: as §1

K-562 = test: NCI SRB GI50 screen; format: cell-based; conditions: Homo sapiens, K562; Leukemia, 48 hrs exposure; read-out: Growth Inhibition GI50 K-562
Experimental: as §1

ACHN = test: NCI SRB GI50 screen; format: cell-based; conditions: Homo sapiens, Renal, 48 hrs exposure, read-out: Growth Inhibition GI50 ACHN
Experimental: as §1

A549/ATCC = test: NCI SRB GI50 screen; format: cell-based; conditions: Homo sapiens, Non-small lung, 48 hrs exposure, read-out: Growth Inhibition GI50 A549/ATCC
Experimental: as §1

M14 = test: NCI SRB GI50 screen; format: cell-based; conditions: Homo sapiens, Melanoma, 48 hrs exposure, read-out: Growth Inhibition GI50 M14
Experimental: as §1

SK-OV-3 = test: NCI SRB GI50 screen; format: cell-based; conditions: Homo sapiens, Ovarian, 48 hrs exposure, read-out: Growth Inhibition GI50 SK-OV-3
Experimental: as §1

HS 578T = test: NCI SRB GI50 screen; format: cell-based; conditions: Homo sapiens, Breast, 48 hrs exposure, read-out: Growth Inhibition GI50 HS 578T
Experimental: as §1

NCI-H522 = test: NCI SRB GI50 screen; format: cell-based; conditions: Homo sapiens, Non-small lung, 48 hrs exposure, read-out: Growth Inhibition GI50 NCI-H522
Experimental: as §1

SMILES | GI50 (MDA-MB-435) | GI50 (BT-549) | GI50 (HCT-15) | GI50 (HOP-62) | GI50 (SK-MEL-5) | GI50 (SF-295) | GI50 (COLO 205) | GI50 (786-0) | GI50 (HCC-2998) | GI50 (SK-MEL-28) | GI50 (NCI-H460) | GI50 (UACC-62) | GI50 (OVCAR-8) | GI50 (CCRF-CEM) | GI50 (SF-539) | GI50 (DU-145) | GI50 (MDA-MB-231/ATCC) | GI50 (K-562) | GI50 (ACHN) | GI50 (A549/ATCC) | further results
O=C(Nc1nc2ccc([N+](=O)[O-])cc2s1)c1cccnc1Nc1cc(F)c(F)c(F)c1 [Compound 8, N3-(6-nitro-1,3-benzothiazol-2-yl)-2-[(3,4,5-trifluorophenyl)amino]-3-pyridine carboxamide] |  |  |  |  |  |  |  |  |  |  |  |  |  |  |  |  |  |  |  |  | activation of caspases-3,-8,-9 activities [1]: 2-3 folds
O=C(Nc1nc2ccc(F)cc2s1)c1cccnc1Nc1ccc(Cl)cc1 [Compound 9, N3-(6-fluoro-1,3-benzothiazol-2-yl)-2-(4-chloroanilino)nicotinamide] | 2.99 µM | 2.05 µM | 3.32 µM | 2.7 µM | 1.11 µM | 1.8 µM | 1.68 µM | 2.78 µM | 2.75 µM | 3.51 µM | 1.97 µM | 1.94 µM | 2.24 µM | 1.06 µM | 2.7 µM | 3.67 µM | 1.85 µM | 0.726 µM | 3.08 µM | 2.32 µM | GI50 (SK-MEL-2): 1.25 µM; GI50 (Sw-620): 1.02 µM; GI50 (UACC-257): 0.164 µM; GI50 (M14): 2.64 µM; GI50 (SK-OV-3): 2.23 µM; GI50 (HS 578T): 1.99 µM; GI50 (NCI-H522): 1.02 µM
O=C(Nc1nc2ccc(F)cc2s1)c1cccnc1Nc1ccc(Cl)cc1Cl [Compound 10, N3-(6-fluoro-1,3-benzothiazol-2-yl)-2-(2,4-dichloroanilino)nicotinamide] | 3.03 µM | 3.01 µM | 3.74 µM | 3.94 µM | 1.71 µM | 1.83 µM | 1.9 µM | 3.77 µM | 3.54 µM | 4.09 µM | 2.56 µM | 2.12 µM | 2.78 µM | 1.85 µM | 4.02 µM | 3.53 µM | 3.41 µM | 1.78 µM | 3.72 µM | 2.96 µM | GI50 (SK-MEL-2): 1.74 µM; GI50 (Sw-620): 3.4 µM; GI50 (UACC-257): 0.17 µM; GI50 (M14): 3.37 µM; GI50 (SK-OV-3): 2.5 µM; GI50 (HS 578T): 3.25 µM; GI50 (NCI-H522): 1.48 µM
COc1cc(Nc2ncccc2C(=O)Nc2nc3ccc(F)cc3s2)cc(OC)c1OC [Compound 11, N3-(6-fluoro-1,3-benzothiazol-2-yl)-2-(3,4,5-trimethoxyanilino)nicotinamide] | 2.87 µM | 2.63 µM | 4.38 µM | 5.78 µM | 1.63 µM | 2.55 µM | 3.04 µM | 5.51 µM | 2.94 µM | 4.33 µM | 3.3 µM | 1.71 µM | 3.62 µM | 3.26 µM | 3.84 µM | 5.5 µM | 4.61 µM | 1.68 µM | 4.82 µM | 3.11 µM | GI50 (SK-MEL-2): 2.34 µM; GI50 (M14): 3.08 µM; GI50 (SK-OV-3): 7.4 µM; GI50 (HS 578T): 2.57 µM; GI50 (NCI-H522): 1.55 µM
COc1ccc2nc(NC(=O)c3cccnc3Nc3cc(OC)c(OC)c(OC)c3)sc2c1 [Compound 12, N-3-(6-methoxy-1,3-benzothiazol-2-yl)-2-(3,4,5-trimethoxyanilino) nicotinamide] | 1.85 µM | 11.6 µM | 11.2 µM | 6.33 µM | 11.3 µM | 8.34 µM | 17.4 µM | 5.6 µM | 17 µM | 7.88 µM | 7.42 µM | 8.45 µM | 6.52 µM | 20.1 µM | 2.81 µM | 14.6 µM | 5.62 µM | 8.91 µM | 6.47 µM | 7.38 µM | GI50 (Sw-620): 11.8 µM; GI50 (UACC-257): 8.45 µM; GI50 (M14): 10.5 µM; GI50 (SK-OV-3): 3.72 µM; GI50 (HS 578T): 5.77 µM; GI50 (NCI-H522): 2.6 µM
